Among the test systems are 786-0 renal; BT-549 breast; CAKI-1 renal; CCRF-CEM leukemia; M14 melanoma; RXF 393 renal; SK-MEL-28 melanoma; SR leukemia; T-47D breast; DLD-1 colon; M19-MEL melanoma; SNB-78 CNS.
What all share (assay): NCI tumour cell line growth inhibition, 48 h

15 compounds from PubChem BioAssay (NCI) can be followed below.

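Tested at 5 concentrations; 48 h exposure; 96-well plates; endpoints linearly interpolated, else capped at highest concentration. Definition used: TGI = concentration required for complete inhibition of growth.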 Where only a bound is given, the exact number is not on record here.

On to `CC(=O)O[C@H]1CC[C@@]2(C)C(=CC[C@@H]3[C@@H]2CC[C@]2(C)c4nc(Cl)ccc4C[C@@H]32)C1`, for which the TGI in the assay with 786-0 renal was above 100 µM; with BT-549 breast, above 100 µM; with CAKI-1 renal, above 100 µM; in the assay on CCRF-CEM leukemia, 58.4 µM; in the assay with M14 melanoma it was above 100 µM; in the assay with RXF 393 renal, above 100 µM. Besides, the TGI with SK-MEL-28 melanoma, with SR leukemia and in the assay with T-47D breast was above 100 µM each time.
With `CSc1c(C#N)c(N)n(-c2ccc(Cl)cc2)c(=O)c1C#N`, the TGI with 786-0 renal, in the assay with BT-549 breast, in the assay on CAKI-1 renal, in the assay with M14 melanoma, with RXF 393 renal and with SK-MEL-28 melanoma was above 100 µM throughout. Besides, the TGI with SR leukemia and in the assay on T-47D breast was above 100 µM throughout.
As to `OC(c1cccnc1Cl)c1nc2ccccc2c2ccnc(Cl)c12` (stereo not drawn), the TGI in the assay on BT-549 breast was above 100 µM; in the assay on CAKI-1 renal it was above 100 µM; in the assay on M14 melanoma, above 100 µM; in the assay on RXF 393 renal, 35.4 µM; in the assay on SK-MEL-28 melanoma, above 100 µM; in the assay with SR leukemia it was 17.7 µM. In the assay on T-47D breast, this compound came in with a TGI above 100 µM.
Turning to `COC(=O)C(=O)Cc1nc2ccccc2o1`, the TGI in the assay with CCRF-CEM leukemia, in the assay with DLD-1 colon, with M14 melanoma, in the assay on M19-MEL melanoma, in the assay on RXF 393 renal and with SK-MEL-28 melanoma was above 100 µM in each case. Moreover, the TGI with SNB-78 CNS and with SR leukemia was above 100 µM in each case.
Regarding `CCN(CC)C1Oc2cc3c(cc2C(c2cccc(OC)c2OC)C1C)OCO3` (stereo not drawn), the TGI in the assay on 786-0 renal stood at 22.7 µM; in the assay on BT-549 breast, 23.6 µM; in the assay on CAKI-1 renal it was 14.2 µM; with CCRF-CEM leukemia it was 8.48 µM; in the assay on M14 melanoma, 46.7 µM; in the assay on RXF 393 renal it was 11.8 µM. For the same compound, the values for the TGI in the assay with SK-MEL-28 melanoma, in the assay on SR leukemia and in the assay with T-47D breast were 50.6 µM, 3.3 µM and 28.5 µM, respectively.
For the compound `Nc1nc2c(C(=O)O)c3ccc([N+](=O)[O-])cc3c(=O)n2c2ccccc12`, the TGI was 48.8 µM with 786-0 renal; 95.9 µM with BT-549 breast; above 100 µM in the assay with CAKI-1 renal; above 100 µM with CCRF-CEM leukemia; 64.2 µM in the assay on M14 melanoma; 45.6 µM with RXF 393 renal. The values for the TGI with SK-MEL-28 melanoma, with SR leukemia and in the assay on T-47D breast were above 100 µM, above 100 µM and 68.9 µM, respectively.
As for `CC(C)/C(Cl)=N/OC(=O)Nc1ccc(Cl)c(Cl)c1`, the TGI in the assay with 786-0 renal was determined as 3.46 µM; in the assay with BT-549 breast, 9.62 µM; in the assay with CAKI-1 renal it was 3.17 µM; in the assay on CCRF-CEM leukemia it was 3.91 µM; with M14 melanoma, 6.52 µM; in the assay with RXF 393 renal, 26.7 µM. Besides, the TGI in the assay with SK-MEL-28 melanoma was 8.5 µM; with SR leukemia, above 100 µM; in the assay with T-47D breast, 12.2 µM.
Regarding `Nc1ncnc2c1ncn2[C@@H]1O[C@H](COC(c2ccccc2)(c2ccccc2)c2ccccc2)[C@@H](OC(=S)Oc2ccccc2)[C@@H]1F`, the TGI is 15.9 µM with 786-0 renal; 19.9 µM in the assay on BT-549 breast; 41.6 µM with CAKI-1 renal; 8.55 µM with CCRF-CEM leukemia; 21 µM in the assay with M14 melanoma; 12.3 µM with RXF 393 renal. The TGI is 33.5 µM in the assay with SK-MEL-28 melanoma, 8.24 µM in the assay on SR leukemia and 52.3 µM in the assay with T-47D breast.
Turning to `COc1cc(CNc2nc3ccccc3nc2C(=O)O)cc(OC)c1OC`, the TGI in the assay with 786-0 renal, with BT-549 breast, in the assay on CAKI-1 renal, with CCRF-CEM leukemia, in the assay on RXF 393 renal and in the assay on SK-MEL-28 melanoma was above 100 µM throughout. The TGI with SR leukemia and in the assay on T-47D breast was above 100 µM in each case.
Consider `CCC1C(c2ccccc2O)c2cc3c(cc2OC1N1CCOCC1)OCO3` (stereo not drawn), for which the TGI in the assay with 786-0 renal came to 43.9 µM; with BT-549 breast it was 29.3 µM; in the assay with CAKI-1 renal, 34.1 µM; in the assay on CCRF-CEM leukemia, 32.7 µM; in the assay with M14 melanoma, 30.6 µM; in the assay on RXF 393 renal it was 28.9 µM. Moreover, the TGI in the assay with SK-MEL-28 melanoma is 33.9 µM; in the assay on SR leukemia, 30.8 µM; with T-47D breast it was 28.8 µM.
For the compound `c1ccc(CC2COC(c3cccs3)=N2)cc1` (stereo not drawn), the TGI in the assay on 786-0 renal, with BT-549 breast, in the assay with CAKI-1 renal, in the assay with CCRF-CEM leukemia, with M14 melanoma and with RXF 393 renal was above 100 µM in each case. The TGI with SK-MEL-28 melanoma, with SR leukemia and in the assay on T-47D breast was above 100 µM throughout.
As to `Nc1ccc(Nc2cc(=O)[nH]c(=O)[nH]2)cc1Cl`, the TGI with 786-0 renal, with BT-549 breast, in the assay with CAKI-1 renal, with CCRF-CEM leukemia, in the assay on M14 melanoma and in the assay on SK-MEL-28 melanoma was above 100 µM throughout. In addition, the TGI with SR leukemia and in the assay on T-47D breast was above 100 µM in each case.
In the case of `O=[N+]([O-])c1ccc(C(O)(C#CCN2CCCC2)c2ccccc2)cc1` (stereo not drawn), the TGI with 786-0 renal was above 100 µM; with BT-549 breast it was above 100 µM; with CCRF-CEM leukemia, 57.5 µM; with M14 melanoma it was 33.6 µM; in the assay on RXF 393 renal, above 100 µM; with SK-MEL-28 melanoma, 34 µM. In addition, the TGI in the assay on SR leukemia is 44.2 µM; in the assay with T-47D breast, 98.9 µM.
On to `CC(=O)OCC1OC(OCCCOP(=S)(OCCC#N)OCC2OC(n3ccc(N)nc3=O)C(OC(=O)c3ccccc3)C2OC(=O)c2ccccc2)C(OC(C)=O)C(OC(C)=O)C1OC(C)=O` (stereo not drawn), for which the TGI with 786-0 renal, in the assay on BT-549 breast, in the assay with CAKI-1 renal, in the assay on CCRF-CEM leukemia, with M14 melanoma and in the assay with RXF 393 renal was above 100 µM each time. The TGI in the assay on SK-MEL-28 melanoma, in the assay on SR leukemia and in the assay on T-47D breast was above 100 µM in each case.
Take `CN(C)CCc1c2c(nc3ccccc13)C(=O)c1cccnc1C2=O`: the TGI worked out at 0.759 µM with 786-0 renal; 1.71 µM with BT-549 breast; 4.62 µM with CAKI-1 renal; 4.85 µM with CCRF-CEM leukemia; 0.4 µM in the assay on M14 melanoma; 1.26 µM in the assay on RXF 393 renal. The TGI in the assay on SK-MEL-28 melanoma was 1.76 µM; in the assay with SR leukemia, 0.144 µM; in the assay on T-47D breast, 10.6 µM.
